Measured values reported in ChEMBL document CHEMBL1135088, “Minimal structural requirements for agonist activity of PAR-2 activating peptides” (Bioorg Med Chem Lett, 2002).
Non-standard residues stand in square brackets, D forms with d. Residues, ends and D or L forms follow the SMILES beside them. *: point of attachment. Arg(NO2) = N=C(NCCC[C@H](N)C(=O)O)N[N+](=O)[O-]; Bz = O=C(c1ccccc1)*

Key:
Rattus norvegicus [1] = species: Rattus norvegicus; assay: In vitro vasorelaxant activity in male wistar rat thoracic aorta by classical rat aorta relaxation assay; n.a.=not active up to a concentration of 3e-4 M; assay type: functional
Rattus norvegicus [2] = species: Rattus norvegicus; assay: In vitro vasorelaxant activity in male wistar rat thoracic aorta by classical rat aorta relaxation assay; assay type: functional

| SMILES | EC50 (Rattus norvegicus [1]) | EC50 (Rattus norvegicus [2]) [µM] |
| --- | --- | --- |
| CC(C)C[C@H](NC(=O)[C@H](CCC/N=C(\N)N[N+](=O)[O-])NC(=O)C1CCCCC1)C(N)=O | Not Active |  |
| COc1ccc(C(=O)N[C@@H](CCC/N=C(\N)N[N+](=O)[O-])C(=O)N[C@@H](CC(C)C)C(N)=O)cc1 |  | 69 |
| CC(C)C[C@H](NC(=O)[C@H](CCC/N=C(\N)N[N+](=O)[O-])NC(=O)c1ccc(C(F)(F)F)cc1)C(N)=O | Not Active |  |
| CC(C)C[C@H](NC(=O)[C@H](CCC/N=C(\N)N[N+](=O)[O-])NC(=O)c1ccc(Cl)cc1)C(N)=O | Not Active |  |
| CC(C)C[C@H](NC(=O)[C@H](CCC/N=C(\N)N[N+](=O)[O-])NC(=O)c1ccc(OC(F)(F)F)cc1)C(N)=O |  | 20 |
| CC(C)C[C@H](NC(=O)[C@H](CCC/N=C(\N)N[N+](=O)[O-])NC(=O)c1ccc([N+](=O)[O-])cc1)C(N)=O | Not Active |  |
| CC(C)C[C@H](NC(=O)[C@H](CCC/N=C(\N)N[N+](=O)[O-])NS(=O)(=O)c1ccccc1)C(N)=O | Not Active |  |
| CSc1ccc(C(=O)N[C@@H](CCC/N=C(\N)N[N+](=O)[O-])C(=O)N[C@@H](CC(C)C)C(N)=O)cc1 | Not Active |  |
| CC(C)C[C@H](NC(=O)[C@H](CCC/N=C(\N)N[N+](=O)[O-])NC(=O)c1ccc(C#N)cc1)C(N)=O | Not Active |  |
| CC(=O)N[C@@H](CCC/N=C(\N)N[N+](=O)[O-])C(=O)N[C@@H](CC(C)C)C(N)=O (Ac-[Arg(NO2)]-Leu-NH2) | Not Active |  |
| CC(C)C[C@H](NC(=O)[C@H](CCC/N=C(\N)N[N+](=O)[O-])NC(=O)c1ccccc1)C(N)=O (Bz-[Arg(NO2)]-Leu-NH2) |  | 400 |
| CC[C@H](C)[C@H](NC(=O)[C@H](CC(C)C)NC(=O)[C@@H](N)CO)C(=O)NCC(=O)N[C@@H](CCCNC(=N)N)C(=O)N[C@@H](CC(C)C)C(N)=O (H-SLIGRL-NH2) |  | 4 |
